The values that follow come from patent US20100074083A1, “RESIN COMPOSITION AND MOLDED PRODUCT OBTAINED BY MOLDING THE RESIN COMPOSITION” (MITSUI CHEMICALS, INC., priority 2006, published 2010).

Data set [1] can be described thus: Weight reducing temperature at heating (heat resistance, TG-DTA). In kind it is physicochemical. The settings on record: heated at 5° C./minutes under nitrogen. The method, then: The sample was heated at 5° C./minutes under nitrogen, and measured by means of TG8120 type TG-DTA device manufactured by Rigaku Corporation.
The nature of data set [2]: Hexane solubility. In kind it is physicochemical. The settings on record: stirred 1 hour, naked eye; for Hexane solubility 43 g: 43 g sample in 100 g n-hexane at 23° C.; for Hexane solubility 100 g: 100 g sample in 100 g n-hexane at 23° C. Here is the method:
The samples in an amount as shown in Table 1 were added into 100 g of n-hexane at 23° C., and the mixture was stirred for 1 hour, and thereafter the state was evaluated with naked eyes on the basis of following criteria.
(Criteria for Evaluation)
S; Completely dissolved, C; Dissolved, but insoluble materials remained, and I.S.; Substantially not dissolved.

For the molecule `CCCCCCCCCCCCNc1nc(N(CCCC)C2CC(C)(C)N(C)C(C)(C)C2)nc(N(CCCC)C2CC(C)(C)N(C)C(C)(C)C2)n1` [Exemplary compound 1, N,N′-dibutyl-,N″-lauryl-N,N′-bis-(1,2,2,6,6-pentamethyl-4-piperidin-4-yl)-[1,3,5]-triazine-2,4,6-triamine], in data set [1], the “Heat resistance 1% by weight reducing temperature” value was 271.6 °C and the “Heat resistance 5% by weight reducing temperature” value came out at 333.4 °C. Besides, in data set [2], the “Hexane solubility 43 g” value is “S” and the “Hexane solubility 100 g” value was “S”.
For `CCCCCCCCCCCCNc1nc(N(CCCCCCCCCCCC)C2CC(C)(C)NC(C)(C)C2)nc(N(CCCCCCCCCCCC)C2CC(C)(C)NC(C)(C)C2)n1` [Exemplary compound 2, N,N′,N″-trilauryl-N,N′-bis-(2,2,6,6-tetramethylpiperidin-4-yl)-[1,3,5]-triazine-2,4,6-triamine], in data set [1], the “Heat resistance 1% by weight reducing temperature” value was found to be 292.9 °C and the “Heat resistance 5% by weight reducing temperature” value amounted to 366.7 °C. In data set [2], the “Hexane solubility 43 g” value is “S” and the “Hexane solubility 100 g” value is on record as “S”.
Turning to `CCCCCCCCCCCCN(c1nc(N(CCCCCCCCCCCC)C2CC(C)(C)NC(C)(C)C2)nc(N(CCCCCCCCCCCC)C2CC(C)(C)NC(C)(C)C2)n1)C1CC(C)(C)NC(C)(C)C1` [Exemplary compound 3, N,N′,N″-trilauryl-N,N′,N″-tris(2,2,6,6-tetramethyl-4-piperidin-4-yl)-[1,3,5]-triazine-2,4,6-triamine], in data set [1], the “Heat resistance 1% by weight reducing temperature” value came out at 246.2 °C and the “Heat resistance 5% by weight reducing temperature” value came out at 377.1 °C. Moreover, in data set [2], the “Hexane solubility 43 g” value is given as “S” and the “Hexane solubility 100 g” value is “S”.
Turning to `CCCCCCCCCCCCN(CCCNc1nc(N(CCCC)C2CC(C)(C)N(C)C(C)(C)C2)nc(N(CCCC)C2CC(C)(C)N(C)C(C)(C)C2)n1)CCCNc1nc(N(CCCC)C2CC(C)(C)N(C)C(C)(C)C2)nc(N(CCCC)C2CC(C)(C)N(C)C(C)(C)C2)n1` [Exemplary compound 4], in data set [1], the “Heat resistance 1% by weight reducing temperature” value amounted to 292.7 °C and the “Heat resistance 5% by weight reducing temperature” value turned out to be 357.2 °C. In data set [2], the “Hexane solubility 43 g” value is “S” and the “Hexane solubility 100 g” value is “S”.
Take `CCCCCCCCCCCCNC1CC(C)(C)NC(C)(C)C1` [Exemplary compound 5, N-dodecyl-2,2,6,6-tetramethyl piperidine-4-amine]: in data set [1], the “Heat resistance 1% by weight reducing temperature” value was determined as 103.3 °C and the “Heat resistance 5% by weight reducing temperature” value was 188.1 °C. For the same molecule, in data set [2], the “Hexane solubility 43 g” value is given as “S” and the “Hexane solubility 100 g” value is on record as “S”.
Consider `CCCCN(c1nc(N(CCCC)C2CC(C)(C)N(C)C(C)(C)C2)nc(N(CCCC)C2CC(C)(C)N(C)C(C)(C)C2)n1)C1CC(C)(C)N(C)C(C)(C)C1` [Exemplary compound 6, N,N′,N″-tributyl-N,N′,N″-tris-(1,2,2,6,6-pentamethyl-4-piperidinyl)-[1,3,5]-triazine-2,4,6-triamine], for which, in data set [1], the “Heat resistance 1% by weight reducing temperature” value amounted to 250.7 °C and the “Heat resistance 5% by weight reducing temperature” value was found to be 320.2 °C. In data set [2], the “Hexane solubility 43 g” value is on record as “S” and the “Hexane solubility 100 g” value is “S”.
For `CCCCCCCCN(c1nc(N(CCCCCCCC)C2CC(C)(C)N(C)C(C)(C)C2)nc(N(CCCCCCCC)C2CC(C)(C)N(C)C(C)(C)C2)n1)C1CC(C)(C)N(C)C(C)(C)C1` [Exemplary compound 7, N,N′,N″-trioctyl-N,N′,N″-tris-(1,2,2,6,6-pentamethyl-4-piperidinyl)-[1,3,5]-triazine-2,4,6-triamine], in data set [1], the “Heat resistance 1% by weight reducing temperature” value was 291.5 °C and the “Heat resistance 5% by weight reducing temperature” value stood at 340.1 °C. Moreover, in data set [2], the “Hexane solubility 43 g” value is “S” and the “Hexane solubility 100 g” value is listed as “S”.
As to `CCCCCCCCCCCCN(c1nc(N(CCCCCCCCCCCC)C2CC(C)(C)N(C)C(C)(C)C2)nc(N(CCCCCCCCCCCC)C2CC(C)(C)N(C)C(C)(C)C2)n1)C1CC(C)(C)N(C)C(C)(C)C1` [Exemplary compound 8, N,N′,N″-tridodecyl-N,N′,N″-tris-(1,2,2,6,6-pentamethyl-4-piperidinyl)-[1,3,5]-triazine-2,4,6-triamine], in data set [1], the “Heat resistance 1% by weight reducing temperature” value came out at 330.1 °C and the “Heat resistance 5% by weight reducing temperature” value turned out to be 378.2 °C. For the same molecule, in data set [2], the “Hexane solubility 43 g” value is listed as “S” and the “Hexane solubility 100 g” value is listed as “S”.
For `CCCCCCCCCCCCNc1nc(N(CCCC)C2CC(C)(C)NC(C)(C)C2)nc(N(CCCC)C2CC(C)(C)NC(C)(C)C2)n1` [Exemplary compound 9, N,N′-dibutyl-N″-dodecyl-N,N′-bis(2,2,6,6-tetramethyl-4-piperidyl)-1,3,5-triazine-2,4,6-triamine], in data set [2], the “Hexane solubility 43 g” value is “S”.
Same read-out and setting: then `CCCCNc1nc(N(CCCC)C2CC(C)(C)NC(C)(C)C2)nc(N(CCCC)C2CC(C)(C)NC(C)(C)C2)n1` [Exemplary compound 10, N,N′,N″-tributyl-N,N′-bis(2,2,6,6-tetramethyl-4-piperidyl)-1,3,5-triazine-2,4,6-triamine], with “S”.
For the molecule `CCCCN(CCCC)c1nc(N(CCCC)C2CC(C)(C)NC(C)(C)C2)nc(N(CCCC)C2CC(C)(C)NC(C)(C)C2)n1` [Exemplary compound 11, N,N′,N″,N″-tetrabutyl-N,N′-bis(2,2,6,6-tetramethyl-4-piperidyl)-1,3,5-triazine-2,4,6-triamine], in data set [2], the “Hexane solubility 43 g” value was “S” and the “Hexane solubility 100 g” value is listed as “S”.
With `CCCCCCCCN(CCCCCCCC)c1nc(N(CCCC)C2CC(C)(C)NC(C)(C)C2)nc(N(CCCC)C2CC(C)(C)NC(C)(C)C2)n1` [Exemplary compound 12, N,N′-dibutyl-N,N′-bis(2,2,6,6-tetramethyl-4-piperidyl)-N″, N″-dioctyl-1,3,5-triazine-2,4,6-triamine], in data set [2], the “Hexane solubility 43 g” value is “S” and the “Hexane solubility 100 g” value is reported as “S”.
Turning to `CCCCCCCCCCCCNc1nc(N(CCCCCCCC)C2CC(C)(C)N(C)C(C)(C)C2)nc(N(CCCCCCCC)C2CC(C)(C)N(C)C(C)(C)C2)n1` [Exemplary compound 13, N-dodecyl-N′,N″-bis(1,2,2,6,6-pentamethyl-4-piperidyl)-N′,N″-dioctyl-1,3,5-triazine-2,4,6-triamine], in data set [2], the “Hexane solubility 43 g” value is reported as “S” and the “Hexane solubility 100 g” value was “S”.
For `CCCCCCCCCCCCN(c1nc(NCCCC)nc(N(CCCCCCCCCCCC)C2CC(C)(C)NC(C)(C)C2)n1)C1CC(C)(C)NC(C)(C)C1` [Exemplary compound 14, N-butyl-N′,N″-didodecyl-N′,N″-bis(2,2,6,6-tetramethyl-4-piperidyl)-1,3,5-triazine-2,4,6-triamine], in data set [2], the “Hexane solubility 43 g” value is listed as “S” and the “Hexane solubility 100 g” value was “S”.
`CC1(C)CC(OC(=O)CCCCCCCCC(=O)OC2CC(C)(C)NC(C)(C)C2)CC(C)(C)N1` [TINUVIN 770]: in data set [1], the “Heat resistance 1% by weight reducing temperature” value amounted to 207.4 °C and the “Heat resistance 5% by weight reducing temperature” value was 248.4 °C. The “Hexane solubility 25 g” value in data set [2] (25 g sample in 100 g n-hexane at 23° C.) was “I.S”.
